Measurements from patent publication US20170143712A1, “Methods of Treating Cancers, Immune and Autoimmune Diseases, and Inflammatory Diseases Based on BTK Occupancy and BTK Resynthesis Rate” (Acerta Pharma B.V., priority 2014, published 2017).

Legend:
[1] = Rat pharmacokinetics, oral gavage vs dietary administration in chow; format: in vivo
Procedure: To evaluate the effects of continuous low dose administration versus oral gavage administration of Formula (II), six male rats per group were treated with oral gavage administration of vehicle or Formula (II) at a dose of 30 mg/kg/day for 14 days. Six male rats per group were treated with dietary Formula (II) in chow at concentrations of 100 and 500 ppm; a control group (no vehicle, no chow) was also included in the study. All animals were evaluated for pharmacokinetics on Day 14, during the night cycle to accommodate the dietary groups. The spleens were collected at necroscopy and splenocytes were harvested and cryopreserved for BTK target occupancy analysis. The presence of inactivated BTK in normal splenocytes was measured using a BTK active-site specific probe in an ELISA assay. Plasma concentrations of Formula (II) were measured using liquid chromatography/mass spectroscopy; pharmacokinetic parameters were estimated using WinNonlin (Pharsight, Cetara).

BTK = BTK (Homo sapiens, UniProt Q06187); experiment: PK/PD model fit and simulation of BTK occupancy and pBTK inhibition; conditions: for BTK resynthesis rate (modeled estimate): 15 mg QD
Chain of BTK (Q06187 whole entry): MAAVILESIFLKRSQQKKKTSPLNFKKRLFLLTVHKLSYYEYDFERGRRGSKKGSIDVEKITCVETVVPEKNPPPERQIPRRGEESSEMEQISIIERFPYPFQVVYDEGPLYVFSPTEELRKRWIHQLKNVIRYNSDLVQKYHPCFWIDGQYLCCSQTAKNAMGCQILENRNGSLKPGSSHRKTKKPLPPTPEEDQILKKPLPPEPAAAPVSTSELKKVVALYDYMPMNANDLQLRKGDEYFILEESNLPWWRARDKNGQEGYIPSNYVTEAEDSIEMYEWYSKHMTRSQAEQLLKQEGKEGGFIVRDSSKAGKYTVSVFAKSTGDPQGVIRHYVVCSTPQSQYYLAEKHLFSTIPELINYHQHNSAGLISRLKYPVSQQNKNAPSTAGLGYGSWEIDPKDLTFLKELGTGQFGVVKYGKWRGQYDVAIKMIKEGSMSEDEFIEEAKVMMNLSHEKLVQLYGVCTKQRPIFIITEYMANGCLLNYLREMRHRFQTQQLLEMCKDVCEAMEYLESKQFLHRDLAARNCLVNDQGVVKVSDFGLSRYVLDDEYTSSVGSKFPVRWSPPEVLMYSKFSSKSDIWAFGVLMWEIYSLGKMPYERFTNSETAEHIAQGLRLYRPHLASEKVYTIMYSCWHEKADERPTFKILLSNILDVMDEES

B cell receptor (BCR) = experiment: Ex vivo anti-IgM induced CD86 and CD69 expression on splenocyte B cells after oral dosing of mice; format: in vivo, mouse; conditions: single oral 25 mg/kg
Procedure: B cell stimulation through the B cell receptor (BCR) with antibodies (e.g., anti-IgM) results in the activation of BTK and subsequent cellular changes, including the upregulation of various cell surface receptors. Measuring the inhibition of BCR induced protein phosphorylation downstream of Btk, and the inhibition of surface receptor upregulation provides a way to assess the Btk inhibitor activity. In the first study, the BTK target occupancy in splenocytes was measured over time, providing evidence for BTK resynthesis in the tissue compartment of interest.
Mice were sacrificed at 3, 6, 12, 18, and 24 hours after treatment with the BTK inhibitors (FIG. 27A, FIG. 27B, and FIG. 27C). Spleens were harvested and splenocyte preparations were made for flow cytometry analysis of B cell functions. Fresh or cryopreserved splenocytes were cultured with a-IgM to stimulate BCR, and the up-regulation of CD69, an early functional marker of B cell activation, was analyzed by flow cytometry.

[2] = tested on: anti-KLH IgM and IgG antibody response; experiment: T cell dependent antibody response (TDAR) to KLH in rats; format: in vivo, rat; conditions: 1, 2.5 and 5 mg/kg/day oral gavage, KLH on Day 50
Procedure: Rats were treated with oral gavage administration of vehicle or Formula (II) at doses of 1, 2.5 and 5 mg/kg/day for 91 days. Sixteen rats per gender were evaluated for development of T cell dependent antibody response (TDAR), with primary immunization on Day 50 with keyhole limpet hemocyanin (KLH) by subcutaneous injection. Dosing continued and on Days 57, 64, and 71, blood samples were collected via the sublingual vein into tubes without anticoagulant and allowed to clot at room temperature for at least 30 minutes, then the serum was divided into 4 approximately equal aliquots and stored frozen at approximately −60 to −90° C. Anti-KLH IgM and IgG antibody levels were determined using an enzyme-linked immunosorbent assay (ELISA). FIG. 41A, FIG. 41B, FIG. 41C, FIG. 41D, FIG. 41E, FIG. 41F, FIG. 42A, FIG. 42B, FIG. 42C, FIG. 42D, FIG. 42E, and FIG. 42F illustrate the trends in anti-KLH antibody responses among male and female rats.

MDA-MB-231 tumor cells = experiment: Osteolytic bone lesions after intratibial MDA-MB-231 tumor inoculation in nude rats; format: in vivo, rat; parameters: mean visual lysis score: scale not given here; mean left tibial density: unit not given here
Procedure: FIG. 40A, FIG. 40B, FIG. 40C, FIG. 40D, FIG. 40E, FIG. 40F, and FIG. 40G illustrate the bone density in hind limbs of nude rats (n=6 per group) implanted with intratibial MDA-MB231 tumor […] and treated for up to 41 days with vehicle control, zoledronate (active control) or varying doses of Formula (II). Oral gavage administration of Formula (II) was scheduled as 3 days of initial QD dosing, followed by 30 days of BID dosing at the following dose levels: 3/3, 30/30, and 180/90 mg/kg/day. An untreated group of rats, without tibial implants (n=3) represents bone density of concurrently obtained normal rat tibial images. Statistical significance was determined by two-way ANOVA-Dunnett: ns=not significant, *=P<0.05, **=P<0.01, ***=P<0.001, versus Group 1.
Rats were inoculated with MDA-MB-231 tumor cells on Day 1, baseline radiographs were taken on Day 2, and treatment with Formula (II) began on Day 8. Radiographs were taken on Days 10, 17, 24, 31, 38, and 41. Anti-osteolytic activities were determined from differences in bone density and visual lysis scores between the drug-treated and vehicle-treated groups on each observation day, and also from changes in bone density and visual lysis scores in tumor-inoculated left tibias at baseline (Day 2) compared to Days 10, 17, 24,31, 38, and 41.
Radiographs were blinded for both analyses. […] Visual osteolysis was not detected in any rat in the nave group. The 4% increase in mean bone density from baseline to study end presumably reflected normal growth in these rats.

[3] = 180 QD/90 BID mg/kg (Group 5), Day 31
[4] = 180 QD/90 BID mg/kg (Group 5), Day 41

CC#CC(=O)N1CCC[C@H]1c1nc(-c2ccc(C(=O)Nc3ccccn3)cc2)c2c(N)nccn12 [Formula (II), (S)-4-(8-amino-3-(1-(but-2-ynoyl)pyrrolidin-2-yl)imidazo[1,5-a]pyrazin-1-yl)-N-(pyridin-2-yl)benzamide]
Cmax as fraction of the AUC0-18 value ([1]; dietary 100 and 500 ppm in chow, Day 14): 1/10
Cmax ([1]; rat, plasma, oral gavage 30 mg/kg/day, Day 14, male rats): 506 ng/mL
AUC(0-t) ([1]; rat, plasma, oral gavage 30 mg/kg/day, Day 14, male rats, read-out: AUC0-12): 864 ng·h/mL
k4,1 (model rate constant) (BTK; 15 mg QD model fit): 0.91
BTK resynthesis rate (modeled estimate) (BTK; after the first 48 hours): 0.04
BTK resynthesis rate (modeled estimate) (BTK; first 48 hours): 0.1
inhibition at 25 mg/kg (B cell receptor (BCR); Mus musculus, B-cell, 3-24 hours, read-out: CD69 % inhibition over the entire time course): 84.3%
inhibition of ex vivo anti-IgM induced responses in B cells (B cell receptor (BCR); 3 hours post-dose): near complete inhibition
inhibition of CD86 and CD69 expression (B cell receptor (BCR); persisting for 24 hours): partial inhibition
anti-KLH IgM and IgG production [2]: significant pharmacological effects on the magnitude of IgM and IgG production
left tibial bone density compared to vehicle controls (MDA-MB-231 tumor cells; 3 or 30 mg/kg, any observation day excluding Day 24 for 30 mg/kg): no significant differences
left intratibial densities compared to control Group 1 (MDA-MB-231 tumor cells; 180 QD/90 BID mg/kg (Group 5)): significantly greater compared to control Group 1 on Day 31, but not Day 41
mean left tibial density (MDA-MB-231 tumor cells; 180 QD/90 BID mg/kg (Group 5), Day 2 baseline): 201.4±0.6
decrease in mean left tibial density (MDA-MB-231 tumor cells; 180 QD/90 BID mg/kg (Group 5), Day 2 to Days 31 and 41): 1-2%
mean left tibial density (MDA-MB-231 tumor cells; [3]): 199.1±0.6
mean visual lysis score (MDA-MB-231 tumor cells; [3]): 1.2
mean left tibial density (MDA-MB-231 tumor cells; [4]): 197.2±0.6
mean visual lysis score (MDA-MB-231 tumor cells; [4]): 1.5
rats that never developed visible left tibial lesions (MDA-MB-231 tumor cells; 180 QD/90 BID mg/kg (Group 5), n=6): Two rats
